Results taken from publication PMC6435658, “Investigation into the Molecular Mechanisms underlying the Anti-proliferative and Anti-tumorigenesis activities of Diosmetin against HCT-116 Human Colorectal Cancer” (Scientific Reports, 2019).
Values after ≈ are worked out from the molar mass of the structure shown.

Tests used:
HT-29 cells = experiment: MTT cytotoxicity assay, HT-29; type: cell-based, human; details: for IC50: Homo sapiens, MTT
Description: [Worded in the source for another cell line; this cell line is reported under the same test.] Cytotoxicity property of Dis against HCT-116 and CCD-841 cells were measured by MTT assay as described by Mossman[77]. Briefly, cells were treated with different concentration of Dis and 5-Fu (positive control) with serial dilution factor of 2 for 8 concentrations in 96 well-plate for different time points (24 h, 48 h and 72 h). Subsequently at the end of each time point 20 µl of MTT (5 mg/ml, Affymetrix,Cleveland, OH, USA) were added to each well followed by 4 h incubation. The solutions were aspirated after 4 h and 100 µl of DMSO were added to each well. Absorbance for each well was read at 570 nm as measured by using microplate reader (Tecan Infinite multimode, Männedorf, Switzerland). Cytotoxicity (cell death) was measured by using the following formula: Celldeath(%)=sampleOD−controlOD/controlOD100
This assay was performed in triplicates in three independent experiments. The cytotoxicity property of Dis was presented as IC50 value.

HCT-116 cells [1] = experiment: NanoString nCounter gene expression profiling; type: cell-based, human
Description: Gene expressions of the cancer canonical pathways were measured by NanoString nCounter. HCT-116 cells were treated with Dis for 48 h and total RNA were extracted by using RNeasy Mini Kit (QiAgen, Hilden, Germany) according to the manufacture’s protocol. Concentrations of RNA were checked through NanoDrop 2000C (Thermo Scientific™, Pittsburgh, PA, USA). Pancancer pathways panel on Nanostring nCounter system (Nanostring Technologies, Inc., Seattle, WA, USA) were used to investigate the gene expression profile of cancer pathways. A total of 770 genes were investigated and compared between Dis treated and untreated cells. The list of investigated genes is provided as supplementary data (Table S1). RNA was hybridized, purified and immobilized before being aligned on the nCounter cartridge and introduced to nCounter.
Digital Analyzer was utilized for data collection according to the manufacturer’s instruction. Briefly, RNA samples were added to the master mix contain hybridization buffer and reporter CodeSet. Capture ProbeSet was added to this mixture and introduced to pre-heated 65 °C thermal cycler for 16 h incubation. After removing the unbound probe, target/probe were immobilized and aligned on the nCounter Cartridge. nCounter digital analyzer was used to collect the nCounter cartridge data and data were analyzed using nSolver 3.0 analysis software. Significant genes were choose based on the false discovery rate (FDR) <0.05 and log2 fold change ≥ ± 0.5 supplementary data (Figure S1).

caspase 3/7 = experiment: Caspase-Glo 3/7 bioluminescent assay; type: cell-based, human; details: HCT-116, 24 h, 48 h, 72 h, time dependent
Description: To assess the effect of Dis on caspase cascades in treated cells, activities of caspase-Glo 3/7, caspase-Glo 8 and caspase-Glo 9 assays (Promega, Madison, WI, USA) were performed. Briefly, HCT-116 cells with the density of 10^4 cells/well were seeded in 96 well-plates. Cells were treated with Dis for 24 h, 48 h and 72 h. This assay was performed in triplicates for each time point. A total of 6 wells were preserved for samples without cells but with media and reagents as the blank samples, and for the untreated cells as negative control. At the end of incubation time, 100 µl caspase-glo mixture were added to each well and incubated for 1 h in the dark according to the manufacturer’s instructions. Optical density was measured via multimode microplate reader (Tecan Infinite, Männedorf, Switzerland).

HCT-116 cells [2] = experiment: Cell cycle analysis by flow cytometry; type: cell-based, human; details: HCT-116, 24 h, 48 h, 72 h
Description: Flow cytometry analysis was performed to determine any disruption during the cell cycle of HCT-116 cells in the presence of Dis. HCT-116at density of 2 × 10^6 cells were seeded and treated for 24 h, 48 h and 72 h in a 75 cm^2 flask. Negative control was treated with 0.02% DMSO. After fixation of the cells with 70% ethanol, cells were preserved in −20 °C overnight followed by washing and staining with 500 µl of PI/Rnase dye (BD Biosciences, San Jose, CA, USA) and incubated for 30 min. DNA content analysis was performed using BD FACSCanto II flow cytometer instrument and BD FACS Diva software (BD FACSCanto™II, San Jose, CA, USA). A total of 15,000 events per sample were recorded for analysis. ModFit LT version 3.0 software was used for analyzing the data.

Colo205 = test system: Colo205; set-up: method as in PMID 19424633, PMID 27176768, PMID 26847170, PMID 20183323; details: Colo205, 24 h treatment; ref [10],[13],[15],[47]; cited from earlier work
HepG-2 = test system: HepG-2; set-up: method as in PMID 19424633, PMID 27176768, PMID 26847170, PMID 20183323; details: HepG-2, 24 h treatment; ref [10],[13],[15],[47]; cited from earlier work
SK-Hep-1 = test system: SK-Hep-1; set-up: method as in PMID 19424633, PMID 27176768, PMID 26847170, PMID 20183323; details: SK-Hep-1, 24 h; ref [10],[13],[15],[47]; cited from earlier work

COc1ccc(-c2cc(=O)c3c(O)cc(O)cc3o2)cc1O [Dis, Diosmetin]
IC50 (HT-29 cells; HT-29, 24 h): 44.5 ± 1.75 µg/mL (≈ 148 µM)
IC50 (HT-29 cells; HT-29, 48 h): 17.6 ± 0.61 µg/mL (≈ 58.4 µM)
IC50 (HT-29 cells; HT-29, 72 h): 11.46 ± 0.1 µg/mL (≈ 38.2 µM)
Selectivity Index (SI) (HT-29 cells; IC50 CCD-841 / IC50 HT-29, 24 h): 5.31
Selectivity Index (SI) (HT-29 cells; IC50 CCD-841 / IC50 HT-29, 48 h): 2.96
Selectivity Index (SI) (HT-29 cells; IC50 CCD-841 / IC50 HT-29, 72 h): 3.53
gene expression of NF-ƙB inhibitor (iƙb-α) (HCT-116 cells [1]; HCT-116, Dis treated): elevates
Log2 fold change, Fubp1 (HCT-116 cells [1]; gene Fubp1, HCT-116, Dis 48 h vs untreated): −0.5
Log2 fold change, Prkar2b (HCT-116 cells [1]; gene Prkar2b, HCT-116, Dis 48 h vs untreated): −1.6
Log2 fold change, bax (HCT-116 cells [1]; gene bax, HCT-116, Dis 48 h vs untreated): 0.5
Log2 fold change, bmp8a (HCT-116 cells [1]; gene bmp8a, HCT-116, Dis 48 h vs untreated): −2.2
Log2 fold change, ccna2 (cyclin A) (HCT-116 cells [1]; gene ccna2 (cyclin A), HCT-116, Dis 48 h vs untreated): −0.6
Log2 fold change, ccnb1 (cyclin B) (HCT-116 cells [1]; gene ccnb1 (cyclin B), HCT-116, Dis 48 h vs untreated): −0.5
Log2 fold change, cdc7 (HCT-116 cells [1]; gene cdc7, HCT-116, Dis 48 h vs untreated): −0.8
Log2 fold change, cdc25 (HCT-116 cells [1]; gene cdc25, HCT-116, Dis 48 h vs untreated): −0.6
Log2 fold change, cdkn1a (p21) (HCT-116 cells [1]; gene cdkn1a (p21), HCT-116, Dis 48 h vs untreated): 1.5
Log2 fold change, fas (HCT-116 cells [1]; gene fas, HCT-116, Dis 48 h vs untreated): 0.8
Log2 fold change, gadd45 (HCT-116 cells [1]; gene gadd45, HCT-116, Dis 48 h vs untreated): 0.8
Log2 fold change, h2afx (HCT-116 cells [1]; gene h2afx, HCT-116, Dis 48 h vs untreated): −0.9
Log2 fold change, h3f3a (h2a) (HCT-116 cells [1]; gene h3f3a (h2a), HCT-116, Dis 48 h vs untreated): −0.9
Log2 fold change, hdac1 (HCT-116 cells [1]; gene hdac1, HCT-116, Dis 48 h vs untreated): −0.5
Log2 fold change, hdac2 (HCT-116 cells [1]; gene hdac2, HCT-116, Dis 48 h vs untreated): −0.6
Log2 fold change, hdac5 (HCT-116 cells [1]; gene hdac5, HCT-116, Dis 48 h vs untreated): −2.6
Log2 fold change, hells (HCT-116 cells [1]; gene hells, HCT-116, Dis 48 h vs untreated): −0.6
Log2 fold change, hist1h3b (HCT-116 cells [1]; gene hist1h3b, HCT-116, Dis 48 h vs untreated): −1.2
Log2 fold change, hist1h3h (HCT-116 cells [1]; gene hist1h3h, HCT-116, Dis 48 h vs untreated): −1.5
Log2 fold change, hspb1 (hsp27) (HCT-116 cells [1]; gene hspb1 (hsp27), HCT-116, Dis 48 h vs untreated): −2.2
Log2 fold change, id1 (HCT-116 cells [1]; gene id1, HCT-116, Dis 48 h vs untreated): −0.5
Log2 fold change, id2 (HCT-116 cells [1]; gene id2, HCT-116, Dis 48 h vs untreated): −2.0
Log2 fold change, mad2l2 (HCT-116 cells [1]; gene mad2l2, HCT-116, Dis 48 h vs untreated): −0.6
Log2 fold change, mcm2 (HCT-116 cells [1]; gene mcm2, HCT-116, Dis 48 h vs untreated): −0.6
Log2 fold change, mcm4 (HCT-116 cells [1]; gene mcm4, HCT-116, Dis 48 h vs untreated): −0.6
Log2 fold change, mcm7 (HCT-116 cells [1]; gene mcm7, HCT-116, Dis 48 h vs untreated): −0.6
Log2 fold change, msh2 (HCT-116 cells [1]; gene msh2, HCT-116, Dis 48 h vs untreated): −0.7
Log2 fold change, nbn (HCT-116 cells [1]; gene nbn, HCT-116, Dis 48 h vs untreated): −0.5
Log2 fold change, pcna (HCT-116 cells [1]; gene pcna, HCT-116, Dis 48 h vs untreated): −0.6
Log2 fold change, pole2 (HCT-116 cells [1]; gene pole2, HCT-116, Dis 48 h vs untreated): −1.4
Log2 fold change, pttg2 (HCT-116 cells [1]; gene pttg2, HCT-116, Dis 48 h vs untreated): −0.9
Log2 fold change, rad21 (HCT-116 cells [1]; gene rad21, HCT-116, Dis 48 h vs untreated): −0.8
Log2 fold change, rbx1 (HCT-116 cells [1]; gene rbx1, HCT-116, Dis 48 h vs untreated): −1.2
Log2 fold change, setd2 (HCT-116 cells [1]; gene setd2, HCT-116, Dis 48 h vs untreated): 0.7
Log2 fold change, sfn (stratifin) (HCT-116 cells [1]; gene sfn (stratifin), HCT-116, Dis 48 h vs untreated): 0.6
Log2 fold change, sin3 (HCT-116 cells [1]; gene sin3, HCT-116, Dis 48 h vs untreated): −0.5
Log2 fold change, smad9 (HCT-116 cells [1]; gene smad9, HCT-116, Dis 48 h vs untreated): −2.7
Log2 fold change, smc3 (HCT-116 cells [1]; gene smc3, HCT-116, Dis 48 h vs untreated): −0.7
Log2 fold change, stmn1 (HCT-116 cells [1]; gene stmn1, HCT-116, Dis 48 h vs untreated): −1.5
Log2 fold change, tnfrsf10b (HCT-116 cells [1]; gene tnfrsf10b, HCT-116, Dis 48 h vs untreated): 0.8
Log2 fold change, ttk (HCT-116 cells [1]; gene ttk, HCT-116, Dis 48 h vs untreated): −1.0
Log2 fold change, ubb (HCT-116 cells [1]; gene ubb, HCT-116, Dis 48 h vs untreated): −0.9
cleavage of caspase 3/7 (caspase 3/7): significantly increased
cell cycle arrest (HCT-116 cells [2]): arrested in G2/M phase
IC50 (Colo205): 29 µg/mL (≈ 96.6 µM)
IC50 (HepG-2): 12 µg/mL (≈ 40 µM)
IC50 (SK-Hep-1): 100 µg/mL (≈ 333 µM)
